Reference: PMC3930709, “Selective Activation of hTRPV1 by N-Geranyl Cyclopropylcarboxamide, an Amiloride-Insensitive Salt Taste Enhancer” (PLoS ONE, 2014)

Target: T1, αβγ hENaC (Homo sapiens, UniProt P37088+P51168+P51170)
T1 construct: GFP; host or cells: HEK293T
T1 sequence (P37088 1-669): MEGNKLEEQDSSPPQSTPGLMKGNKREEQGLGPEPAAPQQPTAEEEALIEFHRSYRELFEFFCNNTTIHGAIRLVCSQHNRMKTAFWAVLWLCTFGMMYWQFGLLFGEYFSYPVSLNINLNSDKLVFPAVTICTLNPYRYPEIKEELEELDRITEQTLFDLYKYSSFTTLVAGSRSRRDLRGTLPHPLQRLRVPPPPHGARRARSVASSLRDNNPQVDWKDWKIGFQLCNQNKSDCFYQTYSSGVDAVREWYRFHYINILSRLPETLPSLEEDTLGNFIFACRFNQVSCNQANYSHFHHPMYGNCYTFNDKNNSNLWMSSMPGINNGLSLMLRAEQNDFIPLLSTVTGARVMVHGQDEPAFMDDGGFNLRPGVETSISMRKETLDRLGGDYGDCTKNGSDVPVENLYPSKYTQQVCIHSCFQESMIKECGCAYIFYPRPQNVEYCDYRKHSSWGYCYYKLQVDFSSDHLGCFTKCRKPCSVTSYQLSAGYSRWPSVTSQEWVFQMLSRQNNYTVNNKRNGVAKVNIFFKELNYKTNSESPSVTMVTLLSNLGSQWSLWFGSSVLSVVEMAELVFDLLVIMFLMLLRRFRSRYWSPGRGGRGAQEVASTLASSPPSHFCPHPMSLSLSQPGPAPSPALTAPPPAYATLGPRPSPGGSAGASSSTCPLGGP
T1 sequence (P51168 1-640): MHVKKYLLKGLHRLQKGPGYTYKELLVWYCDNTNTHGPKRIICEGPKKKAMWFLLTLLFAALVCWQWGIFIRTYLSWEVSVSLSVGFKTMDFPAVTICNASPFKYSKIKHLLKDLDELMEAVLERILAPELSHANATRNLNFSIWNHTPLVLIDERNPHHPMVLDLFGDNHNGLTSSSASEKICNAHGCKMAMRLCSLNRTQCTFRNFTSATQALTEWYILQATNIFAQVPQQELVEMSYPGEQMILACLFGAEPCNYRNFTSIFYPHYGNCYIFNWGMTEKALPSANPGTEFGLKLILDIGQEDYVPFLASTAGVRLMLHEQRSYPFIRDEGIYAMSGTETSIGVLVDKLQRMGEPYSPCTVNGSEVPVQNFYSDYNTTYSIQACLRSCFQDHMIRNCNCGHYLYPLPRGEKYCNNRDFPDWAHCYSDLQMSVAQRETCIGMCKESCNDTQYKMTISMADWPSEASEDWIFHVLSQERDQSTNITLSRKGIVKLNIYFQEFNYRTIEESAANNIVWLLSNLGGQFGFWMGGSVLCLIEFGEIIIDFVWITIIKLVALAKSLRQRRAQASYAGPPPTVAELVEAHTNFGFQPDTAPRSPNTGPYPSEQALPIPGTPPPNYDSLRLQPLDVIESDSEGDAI
T1 sequence (P51170 1-649): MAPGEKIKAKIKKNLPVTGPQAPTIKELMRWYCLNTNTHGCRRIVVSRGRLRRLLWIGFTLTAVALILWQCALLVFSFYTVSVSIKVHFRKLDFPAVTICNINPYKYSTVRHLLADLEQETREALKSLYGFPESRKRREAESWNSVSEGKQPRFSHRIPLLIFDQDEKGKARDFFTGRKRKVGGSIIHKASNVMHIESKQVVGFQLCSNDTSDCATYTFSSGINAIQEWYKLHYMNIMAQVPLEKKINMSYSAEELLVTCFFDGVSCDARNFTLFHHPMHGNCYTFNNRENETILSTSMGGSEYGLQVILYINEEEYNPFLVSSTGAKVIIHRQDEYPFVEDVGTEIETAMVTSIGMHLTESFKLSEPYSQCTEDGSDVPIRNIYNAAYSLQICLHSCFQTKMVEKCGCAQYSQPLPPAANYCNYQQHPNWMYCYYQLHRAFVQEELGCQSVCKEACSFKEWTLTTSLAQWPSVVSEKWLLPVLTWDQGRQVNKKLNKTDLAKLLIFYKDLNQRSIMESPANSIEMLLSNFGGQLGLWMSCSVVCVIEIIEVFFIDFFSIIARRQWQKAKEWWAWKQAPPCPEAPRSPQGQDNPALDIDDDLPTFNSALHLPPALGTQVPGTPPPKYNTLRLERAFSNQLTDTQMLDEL
Experiment: Membrane potential assay (FMP dye) on αβγ hENaC-expressing cells
Type: cell-based
Conditions: relative to buffer alone, 0.01-10 µM
Experimental: The α, β, and γ hENaC subunits were cloned from OriGene (Rockville, MD; GenBank accession number […] for SCNN1A, NM_000336 for SCNN1B and NM_001039 for SCNN1G). α, GFP-tagged β, and γ hENaC were cloned into a CMV promoter-based vector and expressed constitutively. The HEK293T cells were seeded onto a 35 mm dish and transfected with α, β, and γ hENaC expression plasmid using Lipofectamine 2000 (Invitrogen). Then, transfected cells were seeded onto 96-well black-wall plate for 18–26 h prior to their use in an experiment.
hENaC-expressing cells were characterized using FLIPER Membrane Potential (FMP) Assay Kit (Molecular Devices Corporation, Sunnyvale, CA, USA). In this assay, changes in the membrane potential were quantified via fluorescence change caused by FMP dye. The hENaC-expressing cells were washed with assay buffer (containing: 130 mM NaCl, 10 mM glucose, 5 mM KCl, 2 mM CaCl2, 1.2 mM MgCl2, and 10 mM HEPES, pH adjusted to 7.4 with NaOH) and subsequently, FMP blue-dye in assay buffer was loaded into the cells at room temperature for 30 min. After dye treatment, S3969 (0.03−10 µM), an ENaC agonist, S3969+Bz (ENaC antagonist, 0.01 µM), or NGCC (0.01−10 µM) was treated to hENaC-expressing cells. The plate was assayed in a FlexStation III plate reader (Molecular devices Corporation) by excitation at 530 nm and measuring the emission at 560 nm.

CC(C)=CCC/C(C)=C/CNC(=O)C1CC1 [NGCC, N-geranylcyclopropylcarboxamide]
change in membrane potential in αβγ hENaC-expressing cells: no significant changes in membrane potential
